This note sets out measurements from patent publication US20090325933A1, “Pyrimidinone Derivatives and Their Use as a Drug” (Ipsen Pharma S.A.S., priority 2006, published 2009).

By Ki is commonly meant a measure of affinity in units of concentration, obtained from inhibition or displacement.

For this experiment, the target named is T1, human CB2 receptors (Homo sapiens, UniProt P34972).
T1 construct: expressed in transfected cells; membrane preparations
Nature of the experiment: Affinity for human CB2 cannabinoid receptors: inhibition of [3H]-CP55940 binding to transfected CHO-K1 cell membranes. The following applies: inhibition constant value range, [3H]-CP55940 1 nM, Cheng-Prusoff. As to the method:
The affinity of the compounds of the present invention for the different sub-types of cannabinoid receptors was measured according to procedures analogous to those described hereafter for the human CB2 receptor.
Study of the Affinity of the Compounds for the Human CB2 Cannabinoid Receptors:
The affinity of the compounds of the invention for the human CB2 receptors is determined by measuring the inhibition of the binding of [^3H]-CP55940 to transfected CHO-K1 cell membrane preparations.
The CHO-K1 cells expressing the human CB2 receptors in stable fashion are cultured in an RPMI 1640 medium containing 10% foetal calf serum, 2 mM of glutamine, 100 U/ml of penicillin, 0.1 mg/ml of streptomycin and 0.5 mg/ml of G418. The cells are collected with 0.5 mM of EDTA and centrifuged at 500 g for 5 minutes at 4° C. The pellet is re-suspended in phosphate buffered saline medium (PBS) and centrifuged at 500 g for 5 minutes at 4° C. The pellet is re-suspended in a Tris 50 mM buffer medium at pH 7.4 and centrifuged at 500 g for 5 minutes at 4° C. The cells are lysed by sonication and centrifuged at 39,000 g for 10 minutes at 4° C. The pellet is re-suspended in the Tris 50 mM buffer medium at pH 7.4 and centrifuged at 50,000 g for 10 minutes at 4° C. The membranes obtained in this last pellet are stored at −80° C.
Measurement of the competitive inhibition of the binding of the [^3H]-CP55940 to the CB2 receptors is carried out in duplicate using 96-well polypropylene plates. The cell membranes (10 μg of proteins/well) are incubated with the [^3H]-CP55940 (1 nM) for 60 minutes at 25° C. in a Tris-HCl 50 mM buffer medium, pH 7.4, comprising 0.1% bovine serum albumin (BSA), 5 mM of MgCl2, and 50 μg/ml of bacitracin.
The bound [^3H]-CP55940 is separated from the free [^3H]-CP55940 by filtration through GF/C glass fibre filter plates (Unifilter, Packard) pre-impregnated with 0.1% polyethylenimine (P.E.I.), using a Filtermate 196 (Packard). The filters are washed with Tris-HCl 50 mM buffer, pH 7.4 at 0-4° C. and the radioactivity present is determined using a counter (Packard Top Count).
The specific binding is obtained by subtracting the non-specific binding (determined in the presence of 0.1 μM of WIN55212-2 from the total binding). The data are analyzed by computer-assisted non-linear regression (MDL). For each test, a Cheng-Prusoff correction is made in order to convert the IC50 to the inhibition constant, Ki.
where [L] is the concentration of the radioligand used in the test and Kd is the radioligand equilibrium dissociation constant.

Molecules are shown by their SMILES. Where two headings read alike, the source gives them in different places.

T1 sequence (P34972 whole entry): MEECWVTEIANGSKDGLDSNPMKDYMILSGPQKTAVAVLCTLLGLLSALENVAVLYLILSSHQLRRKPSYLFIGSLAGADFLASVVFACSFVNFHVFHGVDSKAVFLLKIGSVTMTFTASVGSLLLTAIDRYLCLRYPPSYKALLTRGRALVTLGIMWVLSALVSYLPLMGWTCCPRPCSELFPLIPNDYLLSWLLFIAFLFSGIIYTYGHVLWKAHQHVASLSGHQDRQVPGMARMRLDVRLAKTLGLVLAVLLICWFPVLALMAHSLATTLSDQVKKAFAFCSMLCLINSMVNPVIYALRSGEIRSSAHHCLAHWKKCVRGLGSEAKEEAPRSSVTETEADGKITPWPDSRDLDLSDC

In the case of `Cc1cc2nc(-c3ccc(-c4cccc(C(F)(F)F)c4)cc3)n(CCN3CCCCC3)c(=O)c2s1` [Example 87], the Ki runs as follows: (read-out: Ki < 0.5 μM) less than 0.5 µM; (read-out: Ki < 5 μM) less than 5 µM.

`O=c1c2sccc2nc(-c2ccc(-c3cccc(F)c3)cc2)n1CCN1CCCCC1` [Example 63]: the Ki was less than 0.5 µM (read-out: Ki < 0.5 μM) and less than 5 µM (read-out: Ki < 5 μM).

Consider `O=c1c2sc3ccccc3c2nc(-c2ccc(-c3ccccc3)cc2)n1CCN1CCOCC1` [Example 45], for which the Ki (read-out: Ki < 5 μM) is less than 5 µM.

Consider `O=c1c2sccc2nc(-c2ccc(-c3ccccc3)cc2)n1CCC1=CCCCC1` [Example 71], for which the Ki by setting is: (read-out: Ki < 0.5 μM) less than 0.5 µM; (read-out: Ki < 5 μM) less than 5 µM.

As for `O=c1c2sccc2nc(-c2ccc(-c3cccs3)cc2)n1CCN1CCOCC1` [Example 40], the Ki is, setting by setting: (read-out: Ki < 0.5 μM) less than 0.5 µM; (read-out: Ki < 5 μM) less than 5 µM.

Turning to `O=c1c2ccsc2nc(-c2ccc(-c3ccccc3)cc2)n1CCN1CCOCC1` [Example 48], the Ki (read-out: Ki < 5 μM) was less than 5 µM.

Consider `Cc1cccc(C)c1-c1ccc(-c2nc3ccsc3c(=O)n2CCN2CCCCC2)cc1` [Example 81], for which the Ki was less than 0.5 µM (read-out: Ki < 0.5 μM) and less than 5 µM (read-out: Ki < 5 μM).

On to `O=c1c2sccc2nc(-c2ccc(-c3ccccc3)cc2)n1CCN1CCCCC1` [Example 24], for which the Ki is, setting by setting: (read-out: Ki < 0.5 μM) less than 0.5 µM; (read-out: Ki < 5 μM) less than 5 µM.

Take `Cc1cccc(-c2ccc(-c3nc4ccsc4c(=O)n3CCN3CCCCC3)cc2)c1` [Example 62]: the Ki runs as follows: (read-out: Ki < 0.5 μM) less than 0.5 µM; (read-out: Ki < 5 μM) less than 5 µM.

Turning to `O=c1c2ccsc2nc(-c2ccc(-c3ccccc3)cc2)n1CCC1CCOCC1` [Example 47], the Ki (read-out: Ki < 5 μM) is less than 5 µM.

Turning to `O=c1c2sccc2nc(-c2ccc(-c3ccccc3)cc2)n1CCN1CCCC1` [Example 26], the Ki is, setting by setting: (read-out: Ki < 0.5 μM) less than 0.5 µM; (read-out: Ki < 5 μM) less than 5 µM.

Consider `O=c1c2sccc2nc(-c2ccc(-c3ccc(Cl)c(Cl)c3)cc2)n1CCN1CCCCC1` [Example 56], for which the Ki was less than 0.5 µM (read-out: Ki < 0.5 μM) and less than 5 µM (read-out: Ki < 5 μM).

Take `Cc1cc2nc(-c3ccc(-c4cccc(F)c4)cc3)n(CCN3CCCCC3)c(=O)c2s1` [Example 85]: the Ki (read-out: Ki < 0.5 μM) is less than 0.5 µM and the Ki (read-out: Ki < 5 μM) is less than 5 µM.

With `O=c1c2occc2nc(-c2ccc(-c3ccccc3)cc2)n1CCN1CCCCC1` [Example 51], the Ki (read-out: Ki < 5 μM) was less than 5 µM.

On to `O=c1c2sc(-c3ccccc3)cc2nc(-c2ccc(-c3ccccc3)cc2)n1CCN1CCCCC1` [Example 58], for which the Ki runs as follows: (read-out: Ki < 0.5 μM) less than 0.5 µM; (read-out: Ki < 5 μM) less than 5 µM.

`O=c1c2sccc2nc(-c2ccc(Cc3ccccc3)cc2)n1CCN1CCCCC1` [Example 32]: the inhibition constant (Ki) reads like this: (read-out: Ki < 0.5 μM) less than 0.5 µM; (read-out: Ki < 5 μM) less than 5 µM.

For the molecule `CC1CCN(CCn2c(-c3ccc(-c4ccccc4)cc3)nc3ccsc3c2=O)CC1` [Example 43], the Ki is less than 0.5 µM (read-out: Ki < 0.5 μM) and less than 5 µM (read-out: Ki < 5 μM).

As to `O=c1c2sccc2nc(-c2ccc(C3CCCCC3)cc2)n1CCN1CCCCCC1` [Example 38], the Ki is, setting by setting: (read-out: Ki < 0.5 μM) less than 0.5 µM; (read-out: Ki < 5 μM) less than 5 µM.

Regarding `O=c1c2sccc2nc(-c2ccc(-c3ccccc3)cc2)n1CCc1ccccc1` [Example 13], the inhibitory constant (Ki) reads like this: (read-out: Ki < 0.5 μM) less than 0.5 µM; (read-out: Ki < 5 μM) less than 5 µM.

`Cc1ccccc1-c1ccc(-c2nc3c(C)c(C)sc3c(=O)n2CCN2CCCCC2)cc1` [Example 75]: the Ki reads like this: (read-out: Ki < 0.5 μM) less than 0.5 µM; (read-out: Ki < 5 μM) less than 5 µM.

`O=c1c2sccc2nc(-c2ccc3[nH]c4ccccc4c3c2)n1CCN1CCCCC1` [Example 52]: for the setting “read-out: Ki < 5 μM”, the Ki was less than 5 µM.

With `Cc1sc2c(=O)n(CCN3CCCCC3)c(-c3ccc(-c4ccccc4)cc3)nc2c1C` [Example 55], the Ki was less than 0.5 µM (read-out: Ki < 0.5 μM) and less than 5 µM (read-out: Ki < 5 μM).

`CC1CCCN(CCn2c(-c3ccc(-c4ccccc4)cc3)nc3ccsc3c2=O)C1` (centres unmarked) [Example 42]: the Ki is, setting by setting: (read-out: Ki < 0.5 μM) less than 0.5 µM; (read-out: Ki < 5 μM) less than 5 µM.

On to `CC(C)(C)c1ccc(-c2ccc(-c3nc4ccsc4c(=O)n3CCN3CCCCC3)cc2)cc1` [Example 41], for which the Ki (read-out: Ki < 5 μM) was less than 5 µM.

For the molecule `Cc1cc2nc(-c3ccc(-c4ccccc4Cl)cc3)n(CCN3CCCCC3)c(=O)c2s1` [Example 77], the Ki was less than 0.5 µM (read-out: Ki < 0.5 μM) and less than 5 µM (read-out: Ki < 5 μM).

On to `O=c1c2sccc2nc(-c2ccc(-c3ccccc3C(F)(F)F)cc2)n1CCN1CCCCC1` [Example 66], for which the Ki runs as follows: (read-out: Ki < 0.5 μM) less than 0.5 µM; (read-out: Ki < 5 μM) less than 5 µM.

Regarding `CC(C)(C)c1cc2nc(-c3ccc(-c4ccccc4)cc3)n(CCN3CCCCC3)c(=O)c2s1` [Example 57], for the setting “read-out: Ki < 5 μM”, the Ki was less than 5 µM.

On to `Cc1ccc(-c2ccc(-c3nc4ccsc4c(=O)n3CCN3CCCCC3)cc2)cc1` [Example 65], for which the Ki is, setting by setting: (read-out: Ki < 0.5 μM) less than 0.5 µM; (read-out: Ki < 5 μM) less than 5 µM.

As for `Cc1cc2nc(-c3ccc(-c4c(Cl)cccc4Cl)cc3)n(CCN3CCCCC3)c(=O)c2s1` [Example 90], the Ki was less than 0.5 µM (read-out: Ki < 0.5 μM) and less than 5 µM (read-out: Ki < 5 μM).

As for `Cc1cc2nc(-c3ccc(-c4cccc(Cl)c4)cc3)n(CCN3CCCCC3)c(=O)c2s1` [Example 86], the Ki by setting is: (read-out: Ki < 0.5 μM) less than 0.5 µM; (read-out: Ki < 5 μM) less than 5 µM.

Regarding `O=c1c2sccc2nc(-c2ccc(C3CCCCC3)cc2)n1CCN1CCOCC1` [Example 37], the Ki runs as follows: (read-out: Ki < 0.5 μM) less than 0.5 µM; (read-out: Ki < 5 μM) less than 5 µM.

Regarding `Cc1cc2nc(-c3ccc(-c4ccccc4F)cc3)n(CCN3CCCCC3)c(=O)c2s1` [Example 78], the Ki runs as follows: (read-out: Ki < 0.5 μM) less than 0.5 µM; (read-out: Ki < 5 μM) less than 5 µM.

Turning to `O=c1c2sccc2nc(-c2ccc(-c3ccccc3Cl)cc2)n1CCN1CCCCC1` [Example 64], the Ki by setting is: (read-out: Ki < 0.5 μM) less than 0.5 µM; (read-out: Ki < 5 μM) less than 5 µM.
